Data: patent US20040192771A1, “Ether compounds and compositions for cholesterol management and related uses” (priority 2001, published 2004)
Read-outs that look alike come from different tables or passages of the source.

What was measured:
primary rat hepatocytes = assay: Inhibition of lipid synthesis ([1-14C]-acetate incorporation) in primary cultures of rat hepatocytes; format: cell-based; settings: Hepatocyte, total lipid synthesis, 4 hours incubation
Description: Compounds were tested for inhibition of lipid synthesis in primary cultures of rat hepatocytes. Male Sprague-Dawley rats were anesthetized with intraperitoneal injection of sodium pentobarbital (80 mg/kg). Rat hepatocytes were isolated essentially as described by the method of Seglen (Seglen, P. O. Hepatocyte suspensions and cultures as tools in experimental carcinogenesis. J. Toxicol. Environ. Health 1979, 5, 551-560). Hepatocytes were suspended in Dulbecco's Modified Eagles Medium containing 25 mM D-glucose, 14 mM HEPES, 5 mM L-glutamine, 5 mM leucine, 5 mM alanine, 10 mM lactate, 1 mM pyruvate, 0.2% bovine serum albumin, 17.4 mM non-essential amino acids, 20% fetal bovine serum, 100 nM insulin and 20 μg/mL gentamycin) and plated at a density of 1.5×10^5 cells/cm^2 on collagen-coated 96-well plates. Four hours after plating, media was replaced with the same media without serum. Cells were grown overnight to allow formation of monolayer cultures. Lipid synthesis incubation conditions were initially assessed to ensure the linearity of [1-^14C]-acetate incorporation into hepatocyte lipids for up to 4 hours. Hepatocyte lipid synthesis inhibitory activity was assessed during incubations in the presence of 0.25 μCi [1-^14C]-acetate/well (final radiospecific activity in assay is 1 Ci/mol) and 0, 1, 3, 10, 30, 100 or 300 μM of compounds for 4 hours. At the end of the 4-hour incubation period, medium was discarded and cells were washed twice with ice-cold phosphate buffered saline and stored frozen prior to analysis. To determine total lipid synthesis, 170 μl of MicroScint-E® and 50 μl water was added to each well to extract and partition the lipid soluble products to the upper organic phase containing the scintillant. Lipid radioactivity was assessed by scintillation spectroscopy in a Packard TopCount NXT.

obese female Zucker rats [1] = assay: Oral daily treatment of obese female Zucker rats for fourteen days; serum lipids and glycemic control indicators; format: in vivo; settings: Rattus norvegicus, percent change from study prebleed; for change in vivo at 70 mg/kg/day: 70 mg/kg/day oral; for change in vivo at 90 mg/kg/day: 90 mg/kg/day oral; for change in vivo at 97 mg/kg/day: 97 mg/kg/day oral; for change in vivo at 100 mg/kg/day: 100 mg/kg/day oral
Description: In a number of different experiments, illustrative compounds of the invention are administered daily at a dose of up to 100 mg/kg to chow fed obese female Zucker rats for fourteen days in the morning by oral gavage in 1.5% carboxymethylcellulose/0.2% Tween 20 or 20% ethanol/80% polyethylene glycol (dosing vehicles). Animals are weighed daily. Animals are allowed free access to rodent chow and water throughout the study except on days of blood sampling where food is restricted for six hours prior to blood sampling. Blood glucose is determined after the 6 hour fast in the afternoon without anesthesia from a tail vein. Serum is also prepared from pretreatment blood samples subsequently obtained from the orbital venous plexus (with O2/CO2 anesthesia) and following the fourteenth dose at sacrifice from the heart following O2/CO2 anesthesia. Serums are assayed for lipoprotein cholesterol profiles, triglycerides, total cholesterol, Non HDL cholesterol, HDL cholesterol, the ratio of HDL cholesterol to that of Non HDL cholesterol, insulin, non esterified fatty acids, and beta hydroxy butyric acid. The percent body weight gain and the ratio of liver to body weight is also determined. These are shown as absolute values or as a percent change of the pretreatment values in Table C. [drawing 479] [drawing 480]

obese female Zucker rats [2] = assay: as above; format: in vivo; settings: Rattus norvegicus, 168 h; percent change from study prebleed; week 1; 97 mg/kg/day oral; read-out: HDL-C
[3] = 168 h, week 1, read-out: Glucose
[4] = 168 h, week 1, read-out: Insulin
[5] = 168 h, week 1, read-out: Non-HDL-C
[6] = 336 h, week 2, read-out: Glucose
[7] = 336 h, week 2, read-out: Insulin
[8] = 336 h, week 2, read-out: Non-HDL-C

CC(C)(Cc1cccc(Oc2cccc(CC(C)(C)C(=O)O)c2)c1)C(=O)O [Compound 135, 3-{3-[3-(2-Carboxy-2-methylpropyl)-phenoxy]-phenyl}-2,2-dimethylpropionic acid]
IC50 (primary rat hepatocytes): 52 µM | change in vivo at 70 mg/kg/day (obese female Zucker rats [1]; [3]): -13% | change in vivo at 70 mg/kg/day (obese female Zucker rats [1]; 168 h, week 1, read-out: HDL-C): 63% | change in vivo at 70 mg/kg/day (obese female Zucker rats [1]; [4]): -43% | change in vivo at 70 mg/kg/day (obese female Zucker rats [1]; [5]): -53% | change in vivo at 70 mg/kg/day (obese female Zucker rats [1]; 168 h, week 1, read-out: TC): 3% | change in vivo at 70 mg/kg/day (obese female Zucker rats [1]; 168 h, week 1, read-out: TG): -45% | change in vivo at 70 mg/kg/day (obese female Zucker rats [1]; [6]): -16% | change in vivo at 70 mg/kg/day (obese female Zucker rats [1]; 336 h, week 2, read-out: HDL-C): 31% | change in vivo at 70 mg/kg/day (obese female Zucker rats [1]; [7]): 1% | change in vivo at 70 mg/kg/day (obese female Zucker rats [1]; [8]): -41% | change in vivo at 70 mg/kg/day (obese female Zucker rats [1]; 336 h, week 2, read-out: TC): -7% | change in vivo at 70 mg/kg/day (obese female Zucker rats [1]; 336 h, week 2, read-out: TG): -52%

CC(C)(CO)Cc1cccc(Oc2cccc(CC(C)(C)CO)c2)c1 [Compound 136, 3-{3-[3-(3-Hydroxy-2,2-dimethylpropyl)-phenoxy]-phenyl}-2,2-dimethylpropan-1-ol]
IC50 (primary rat hepatocytes): 98 µM | change in vivo at 90 mg/kg/day (obese female Zucker rats [1]; [3]): -20% | change in vivo at 90 mg/kg/day (obese female Zucker rats [1]; 168 h, week 1, read-out: HDL-C): 22% | change in vivo at 90 mg/kg/day (obese female Zucker rats [1]; [4]): -57% | change in vivo at 90 mg/kg/day (obese female Zucker rats [1]; [5]): -12% | change in vivo at 90 mg/kg/day (obese female Zucker rats [1]; 168 h, week 1, read-out: TC): 1% | change in vivo at 90 mg/kg/day (obese female Zucker rats [1]; 168 h, week 1, read-out: TG): 13% | change in vivo at 90 mg/kg/day (obese female Zucker rats [1]; [6]): -3% | change in vivo at 90 mg/kg/day (obese female Zucker rats [1]; 336 h, week 2, read-out: HDL-C): -4% | change in vivo at 90 mg/kg/day (obese female Zucker rats [1]; [7]): -45% | change in vivo at 90 mg/kg/day (obese female Zucker rats [1]; [8]): 23% | change in vivo at 90 mg/kg/day (obese female Zucker rats [1]; 336 h, week 2, read-out: TC): 9% | change in vivo at 90 mg/kg/day (obese female Zucker rats [1]; 336 h, week 2, read-out: TG): 18%

CC(C)(CO)CCCC1CCC(CCCC(C)(C)CO)O1 (centres unmarked) [Compound 138, 5-[5-(5-Hydroxy-4,4-dimethylpentyl)-tetrahydrofuran-2-yl]-2,2-dimethylpentan-1-ol]
IC50 (primary rat hepatocytes): 9 µM | change in vivo at 97 mg/kg/day (obese female Zucker rats [1]; [3]): 35% | change in vivo at 97 mg/kg/day (obese female Zucker rats [1]; [4]): 43% | change in vivo at 97 mg/kg/day (obese female Zucker rats [1]; [5]): 11% | change in vivo at 97 mg/kg/day (obese female Zucker rats [1]; 168 h, week 1, read-out: TC): 128% | change in vivo at 97 mg/kg/day (obese female Zucker rats [1]; 168 h, week 1, read-out: TG): -49% | change in vivo at 97 mg/kg/day (obese female Zucker rats [1]; [6]): 10% | change in vivo at 97 mg/kg/day (obese female Zucker rats [1]; 336 h, week 2, read-out: HDL-C): 140% | change in vivo at 97 mg/kg/day (obese female Zucker rats [1]; [7]): 69% | change in vivo at 97 mg/kg/day (obese female Zucker rats [1]; [8]): 31% | change in vivo at 97 mg/kg/day (obese female Zucker rats [1]; 336 h, week 2, read-out: TC): 74% | change in vivo at 97 mg/kg/day (obese female Zucker rats [1]; 336 h, week 2, read-out: TG): -13% | change in vivo at 97 mg/kg/day (obese female Zucker rats [2]): 287%

CC(C)(CO)CCCC1CCCC(CCCC(C)(C)CO)O1 (centres unmarked) [Compound 141, 5-[6-(5-Hydroxy-4,4-dimethylpentyl)-tetrahydropyran-2-yl]-2,2-dimethylpentan-1-ol]
IC50 (primary rat hepatocytes): 39 µM | change in vivo at 100 mg/kg/day (obese female Zucker rats [1]; [3]): -14% | change in vivo at 100 mg/kg/day (obese female Zucker rats [1]; 168 h, week 1, read-out: HDL-C): 75% | change in vivo at 100 mg/kg/day (obese female Zucker rats [1]; [4]): -2% | change in vivo at 100 mg/kg/day (obese female Zucker rats [1]; [5]): -70% | change in vivo at 100 mg/kg/day (obese female Zucker rats [1]; 168 h, week 1, read-out: TC): 28% | change in vivo at 100 mg/kg/day (obese female Zucker rats [1]; 168 h, week 1, read-out: TG): -74% | change in vivo at 100 mg/kg/day (obese female Zucker rats [1]; [6]): -9% | change in vivo at 100 mg/kg/day (obese female Zucker rats [1]; 336 h, week 2, read-out: HDL-C): 127% | change in vivo at 100 mg/kg/day (obese female Zucker rats [1]; [7]): 10% | change in vivo at 100 mg/kg/day (obese female Zucker rats [1]; [8]): -31% | change in vivo at 100 mg/kg/day (obese female Zucker rats [1]; 336 h, week 2, read-out: TC): 70% | change in vivo at 100 mg/kg/day (obese female Zucker rats [1]; 336 h, week 2, read-out: TG): -47%

CC(C)(CCCCOCCCCC(C)(C)CCC(=O)O)CCC(=O)O [Compound 145, 4,4,14,14-Tetramethyl-9-oxaheptadecane-1,17-dioic acid]
IC50 (primary rat hepatocytes): 22 µM | change in vivo at 100 mg/kg/day (obese female Zucker rats [1]; [3]): -1% | change in vivo at 100 mg/kg/day (obese female Zucker rats [1]; 168 h, week 1, read-out: HDL-C): 13% | change in vivo at 100 mg/kg/day (obese female Zucker rats [1]; [4]): -34% | change in vivo at 100 mg/kg/day (obese female Zucker rats [1]; [5]): -50% | change in vivo at 100 mg/kg/day (obese female Zucker rats [1]; 168 h, week 1, read-out: TC): -3% | change in vivo at 100 mg/kg/day (obese female Zucker rats [1]; 168 h, week 1, read-out: TG): -80% | change in vivo at 100 mg/kg/day (obese female Zucker rats [1]; [6]): 16% | change in vivo at 100 mg/kg/day (obese female Zucker rats [1]; 336 h, week 2, read-out: HDL-C): 39% | change in vivo at 100 mg/kg/day (obese female Zucker rats [1]; [7]): -45% | change in vivo at 100 mg/kg/day (obese female Zucker rats [1]; [8]): -30% | change in vivo at 100 mg/kg/day (obese female Zucker rats [1]; 336 h, week 2, read-out: TC): 21% | change in vivo at 100 mg/kg/day (obese female Zucker rats [1]; 336 h, week 2, read-out: TG): -73%
